Assay results: the supplement of paper PMC10627819

Columns and labels:
S. pneumoniae D39V [1] = test: fitness (endpoint OD595 vs no drug) (fraction); higher = more growth
Summary of the method: (§1)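 Cultures at OD595 0.01 were dispensed into 384-well plates in TSB, LB Lennox or CY and incubated at 37 °C. Every 30 min for 14 h, OD595 was read and corrected by the first reading. Fitness is the optical density at entry into stationary phase relative to the robust mean of no-drug control wells, capped at 1.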

S. aureus Newman [2] = test: as above
Summary of the method: as §1

B. subtilis 168 [3] = test: Bliss interaction score (quartile over a dose matrix) (fitness difference); higher = more antagonism (negative = synergy)
Summary of the method: (§2)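 Each plate was normalised to the robust mean of its own no-drug wells, using OD595 at entry into stationary phase, with values capped at 1. This normalised growth is the fitness value. The Bliss score is the difference between observed and product-expected fitness, with single-drug fitness inferred from the combination data and quartiles taken over technical, biological and donor/recipient replicates.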

S. pneumoniae D39V [4] = test: as above
Summary of the method: as §2

S. aureus DSM 20231 = test: as above
Summary of the method: as §2

S. aureus Newman [5] = test: as above
Summary of the method: as §2

B. subtilis 168 [6] = test: fitness (endpoint OD595 vs no drug) (fraction); higher = more growth
Summary of the method: as §1
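For Bliss interaction score (quartile over a dose matrix) in this document: first quartile when negative (synergy) and third quartile when positive (antagonism).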

CO/N=C(\C(=O)N[C@@H]1C(=O)N2C(C(=O)[O-])=C(C[N+]3(C)CCCC3)CS[C@H]12)c1csc(N)n1 [Cefepime] + CC1=C(C(=O)O)N2C(=O)[C@@H](NC(=O)[C@H](N)c3ccccc3)[C@H]2SC1 [Cephalexin]
fitness
Conditions	first compound 0.007 µg/mL	first compound 0.014 µg/mL	first compound 0.028 µg/mL	first compound 0.125 µg/mL	first compound 0.25 µg/mL	first compound 0.5 µg/mL
S. aureus Newman [2], partner 0.25 µg/mL	–	–	–	0.941	0.876	0.843
S. aureus Newman [2], partner 0.5 µg/mL	–	–	–	0.939	0.867	0.8
S. aureus Newman [2], partner 1 µg/mL	–	–	–	0.969	0.922	0.861
S. pneumoniae D39V [1], partner 1 µg/mL	0.93	0.923	0.584	–	–	–
S. pneumoniae D39V [1], partner 2 µg/mL	0.101	0.0733	0.0074	–	–	–
S. pneumoniae D39V [1], partner 4 µg/mL	0.0209	0.0355	0.015	–	–	–

fitness, S. pneumoniae D39V [1], one replicate
Conditions	first compound 0.0078 µg/mL	first compound 0.0155 µg/mL	first compound 0.031 µg/mL
partner 0.125 µg/mL	≥ 1	0.94	0.434
partner 0.25 µg/mL	0.988	0.96	0.529
partner 0.5 µg/mL	≥ 1	0.925	0.297

Conditions	Bliss interaction score
B. subtilis 168 [3]	0.0474
S. aureus DSM 20231	0.0619
S. aureus Newman [5]	-0.0529
S. pneumoniae D39V [4]	-0.105

CC1(C)S[C@@H]2[C@H](NC(=O)[C@H](N)c3ccc(O)cc3)C(=O)N2[C@H]1C(=O)O [Amoxicillin] + O=C(O)c1cn(C2CC2)c2cc(N3CCNCC3)c(F)cc2c1=O [Ciprofloxacin]
Conditions	fitness
S. aureus Newman [2], first compound 0.0625 µg/mL, partner 0.0375 µg/mL	0.734
S. aureus Newman [2], first compound 0.0625 µg/mL, partner 0.075 µg/mL	0.656
S. pneumoniae D39V [1], first compound 0.0008 µg/mL, partner 0.125 µg/mL	0.93
S. pneumoniae D39V [1], first compound 0.0008 µg/mL, partner 0.25 µg/mL	0.834
S. pneumoniae D39V [1], first compound 0.0015 µg/mL, partner 0.125 µg/mL	0.94
S. pneumoniae D39V [1], first compound 0.0015 µg/mL, partner 0.25 µg/mL	0.828
S. pneumoniae D39V [1], first compound 0.003 µg/mL, partner 0.125 µg/mL	0.934
S. pneumoniae D39V [1], first compound 0.003 µg/mL, partner 0.25 µg/mL	0.826
S. pneumoniae D39V [1], first compound 0.003 µg/mL, partner 0.5 µg/mL	0.747

fitness, one replicate
Conditions	partner 0.078 µg/mL	partner 0.125 µg/mL	partner 0.156 µg/mL	partner 0.25 µg/mL	partner 0.312 µg/mL	partner 0.5 µg/mL
S. aureus Newman [2], first compound 0.0625 µg/mL	0.327	–	0.075	–	0.0582	–
S. aureus Newman [2], first compound 0.125 µg/mL	0.192	–	0.0621	–	0.038	–
S. aureus Newman [2], first compound 0.25 µg/mL	0.144	–	0.056	–	0.0663	–
S. pneumoniae D39V [1], first compound 0.006 µg/mL	–	0.549	–	0.474	–	0.453

Conditions	Bliss interaction score
B. subtilis 168 [3]	-0.063
S. aureus DSM 20231	-0.0788
S. aureus Newman [5]	-0.0561
S. pneumoniae D39V [4]	0.0751

CO/N=C(\C(=O)N[C@@H]1C(=O)N2C(C(=O)[O-])=C(C[N+]3(C)CCCC3)CS[C@H]12)c1csc(N)n1 [Cefepime] + CC(C1CCC(C(O1)OC2C(CC(C(C2O)OC3C(C(C(CO3)(C)O)NC)O)N)N)N)NC [Gentamicin]
main component drawn
Conditions	fitness
S. aureus Newman [2], first compound 0.125 µg/mL, partner 0.375 µg/mL	0.954
S. aureus Newman [2], first compound 0.125 µg/mL, partner 0.5 µg/mL	0.871
S. aureus Newman [2], first compound 0.125 µg/mL, partner 0.75 µg/mL	0.94
S. aureus Newman [2], first compound 0.125 µg/mL, partner 1 µg/mL	≥ 1
S. aureus Newman [2], first compound 0.125 µg/mL, partner 1.5 µg/mL	0.916
S. aureus Newman [2], first compound 0.125 µg/mL, partner 2 µg/mL	≥ 1
S. aureus Newman [2], first compound 0.25 µg/mL, partner 0.375 µg/mL	0.857
S. aureus Newman [2], first compound 0.25 µg/mL, partner 0.5 µg/mL	0.816
S. aureus Newman [2], first compound 0.25 µg/mL, partner 0.75 µg/mL	0.837
S. aureus Newman [2], first compound 0.25 µg/mL, partner 1 µg/mL	0.906
S. aureus Newman [2], first compound 0.25 µg/mL, partner 1.5 µg/mL	0.787
S. aureus Newman [2], first compound 0.25 µg/mL, partner 2 µg/mL	0.966
S. aureus Newman [2], first compound 0.5 µg/mL, partner 0.375 µg/mL	0.799
S. aureus Newman [2], first compound 0.5 µg/mL, partner 0.5 µg/mL	0.757
S. aureus Newman [2], first compound 0.5 µg/mL, partner 0.75 µg/mL	0.818
S. aureus Newman [2], first compound 0.5 µg/mL, partner 1 µg/mL	0.804
S. aureus Newman [2], first compound 0.5 µg/mL, partner 1.5 µg/mL	0.744
S. aureus Newman [2], first compound 0.5 µg/mL, partner 2 µg/mL	0.87
S. pneumoniae D39V [1], first compound 0.007 µg/mL, partner 2 µg/mL	0.994
S. pneumoniae D39V [1], first compound 0.007 µg/mL, partner 4 µg/mL	0.996
S. pneumoniae D39V [1], first compound 0.007 µg/mL, partner 8 µg/mL	0.97
S. pneumoniae D39V [1], first compound 0.0078 µg/mL, partner 2 µg/mL	1
S. pneumoniae D39V [1], first compound 0.0078 µg/mL, partner 4 µg/mL	≥ 1
S. pneumoniae D39V [1], first compound 0.0078 µg/mL, partner 8 µg/mL	0.972
S. pneumoniae D39V [1], first compound 0.014 µg/mL, partner 2 µg/mL	≥ 1
S. pneumoniae D39V [1], first compound 0.014 µg/mL, partner 4 µg/mL	0.99
S. pneumoniae D39V [1], first compound 0.014 µg/mL, partner 8 µg/mL	≥ 1
S. pneumoniae D39V [1], first compound 0.0155 µg/mL, partner 2 µg/mL	0.964
S. pneumoniae D39V [1], first compound 0.0155 µg/mL, partner 4 µg/mL	0.974
S. pneumoniae D39V [1], first compound 0.0155 µg/mL, partner 8 µg/mL	0.971
S. pneumoniae D39V [1], first compound 0.028 µg/mL, partner 2 µg/mL	0.926
S. pneumoniae D39V [1], first compound 0.028 µg/mL, partner 4 µg/mL	0.932
S. pneumoniae D39V [1], first compound 0.028 µg/mL, partner 8 µg/mL	0.885
S. pneumoniae D39V [1], first compound 0.031 µg/mL, partner 2 µg/mL	0.493
S. pneumoniae D39V [1], first compound 0.031 µg/mL, partner 8 µg/mL	0.439

main component drawn
Conditions	Bliss interaction score
B. subtilis 168 [3]	-0.134
S. aureus DSM 20231	0.0966
S. aureus Newman [5]	-0.0492
S. pneumoniae D39V [4]	0.0531

CCCCCCCCCC(=O)N[C@@H](Cc1c[nH]c2ccccc12)C(=O)N[C@H](CC(N)=O)C(=O)N[C@@H](CC(=O)O)C(=O)N[C@@H]1C(=O)NCC(=O)N[C@@H](CCCN)C(=O)N[C@@H](CC(=O)O)C(=O)N[C@H](C)C(=O)N[C@@H](CC(=O)O)C(=O)NCC(=O)N[C@H](CO)C(=O)N[C@@H]([C@H](C)CC(=O)O)C(=O)N[C@@H](CC(=O)c2ccccc2N)C(=O)O[C@@H]1C [Daptomycin] + CN(C)c1cc(NC(=O)CNC(C)(C)C)c(O)c2c1C[C@H]1C[C@H]3[C@H](N(C)C)C(O)=C(C(N)=O)C(=O)[C@@]3(O)C(O)=C1C2=O [Tigecycline]
fitness
Conditions	first compound 0.125 µg/mL	first compound 0.25 µg/mL	first compound 0.5 µg/mL	first compound 1 µg/mL	first compound 2 µg/mL	first compound 4 µg/mL
B. subtilis 168 [6], partner 0.039 µg/mL	0.929	0.926	0.869	–	–	–
B. subtilis 168 [6], partner 0.078 µg/mL	0.89	0.892	0.867	–	–	–
B. subtilis 168 [6], partner 0.156 µg/mL	0.904	0.905	0.885	–	–	–
S. aureus Newman [2], partner 0.039 µg/mL	0.932	0.984	0.917	–	–	–
S. aureus Newman [2], partner 0.078 µg/mL	≥ 1	0.988	0.987	–	–	–
S. aureus Newman [2], partner 0.156 µg/mL	≥ 1	0.997	0.991	–	–	–
S. pneumoniae D39V [1], partner 0.325 µg/mL	–	–	–	0.973	0.993	0.976
S. pneumoniae D39V [1], partner 0.65 µg/mL	–	–	–	0.959	0.945	0.963
S. pneumoniae D39V [1], partner 1.3 µg/mL	–	–	–	0.963	0.956	0.972
S. pneumoniae D39V [1], partner 2.6 µg/mL	–	–	–	0.911	0.903	0.956

fitness, B. subtilis 168 [6], one replicate
Conditions	partner 0.039 µg/mL	partner 0.078 µg/mL	partner 0.125 µg/mL	partner 0.156 µg/mL	partner 0.25 µg/mL	partner 0.5 µg/mL
first compound 0.125 µg/mL	–	–	0.985	–	0.902	0.899
first compound 0.25 µg/mL	–	–	0.974	–	0.926	0.981
first compound 0.5 µg/mL	–	–	0.955	–	0.944	0.989
first compound 1 µg/mL	0.759	0.732	–	0.731	–	–

Conditions	Bliss interaction score
B. subtilis 168 [3]	-0.0609
S. aureus DSM 20231	0.0697
S. aureus Newman [5]	-0.037
S. pneumoniae D39V [4]	0.0991
